Columns and labels:
Test in all cases: Cell proliferation assay (Alamar Blue)
Type in all cases: cell-based
[1] = system: JHH1; settings: 144 h; JHH1 liver cancer cell line; 6 days
Outline: (§1)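 Seeding density per line set in pilot runs (500–1×10^4/well); treatment began after 4 h with a 3.16-fold, nine-point series from 30 or 100 μM, in duplicate. Six days later, 1–4 h AlamarBlue incubation, fluorescence read, inhibition relative to control wells fitted for IC50.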

[2] = system: K562; settings: Homo sapiens, 144 h; K562 tumor cell line; 6 days
Outline: as §1

[3] = system: SNU182; settings: Homo sapiens, SNU-182, 144 h; SNU182 liver cancer cell line; 6 days
Outline: as §1

[4] = system: HUH6; settings: Homo sapiens, HuH-6, 144 h; HUH6 liver cancer cell line; 6 days
Outline: as §1

[5] = system: JHH6; settings: 144 h; JHH6 liver cancer cell line; 6 days
Outline: as §1

[6] = system: MFM-223; settings: Homo sapiens, 144 h; MFM-223 tumor cell line; 6 days
Outline: as §1

[7] = system: HuTu80; settings: Homo sapiens, 144 h; HuTu80 tumor cell line; 6 days
Outline: as §1

[8] = system: T.T; settings: Homo sapiens, TT, 144 h; T.T tumor cell line; 6 days
Outline: as §1

[9] = system: HLF; settings: 144 h; HLF liver cancer cell line; 6 days
Outline: as §1

[10] = system: MG63; settings: Homo sapiens, MG-63, 144 h; MG63 tumor cell line; 6 days
Outline: as §1

[11] = system: HUH1; settings: Homo sapiens, HuH-1, 144 h; HUH1 liver cancer cell line; 6 days
Outline: as §1

[12] = system: SNU449; settings: Homo sapiens, SNU-449, 144 h; SNU449 liver cancer cell line; 6 days
Outline: as §1

[13] = system: SNU398; settings: Homo sapiens, SNU-398, 144 h; SNU398 liver cancer cell line; 6 days
Outline: as §1

[14] = system: SNU423; settings: Homo sapiens, SNU-423, 144 h; SNU423 liver cancer cell line; 6 days
Outline: as §1

[15] = system: Alexander cells; settings: 144 h, liver cancer cell line, 6 days
Outline: as §1

[16] = system: HCCLM3; settings: Homo sapiens, 144 h; HCCLM3 tumor cell line; 6 days
Outline: as §1

[17] = system: SNU475; settings: Homo sapiens, SNU-475, 144 h; SNU475 liver cancer cell line; 6 days
Outline: as §1

[18] = system: SNU886; settings: SNU-886, 144 h; SNU886 liver cancer cell line; 6 days
Outline: as §1

[19] = system: SW620; settings: Homo sapiens, SW-620, 144 h; SW620 tumor cell line; 6 days
Outline: as §1

[20] = system: HLE; settings: Homo sapiens, 144 h; HLE liver cancer cell line; 6 days
Outline: as §1

[21] = system: NCl-H1703; settings: 144 h; NCl-H1703 (lung cancer cells); 6 days
Outline: as §1

[22] = system: KM12; settings: Homo sapiens, 144 h; KM12 tumor cell line; 6 days
Outline: as §1

[23] = system: KASUMI-1; settings: Homo sapiens, 144 h; KASUMI-1 (leukemia cells); 6 days
Outline: as §1

**Q.** What does the source list for `Cc1ccc(F)c(NC(=O)Nc2ccc(-c3cccc4c3c(N)nn4C(=O)C[C@H](N)C(=O)N[C@@H](CCC(=O)N[C@@H](CCC(=O)N[C@@H](CCC(=O)N[C@@H](CCC(=O)N[C@@H](CCC(=O)N[C@@H](CCC(=O)N[C@@H](CCC(=O)N[C@@H](CCC(=O)N[C@@H](CCC(=O)O)C(=O)O)C(=O)O)C(=O)O)C(=O)O)C(=O)O)C(=O)O)C(=O)O)C(=O)O)C(=O)O)cc2)c1` [Compound 3]?
**A.** IC50 [1]: 14.9 µM; IC50 [2]: 16.9 µM; IC50 [3]: 54.2 µM; IC50 [4]: 1.55 µM; IC50 [5]: 7.51 µM; IC50 [6]: 21.9 µM; IC50 [7]: 7.33 µM; IC50 [8]: 19.8 µM; IC50 [9]: 7.73 µM; IC50 [10]: 27.1 µM; IC50 [11]: 7.93 µM; IC50 [12]: 14.6 µM; IC50 [13]: 17.1 µM; IC50 [14]: 26.1 µM; IC50 [15]: 12.7 µM; IC50 [16]: 25.7 µM; IC50 [17]: 9.62 µM; IC50 [18]: 9.06 µM; IC50 [19]: 10.4 µM; IC50 [20]: 4.72 µM; IC50 [21]: 150 nM; IC50 [22]: 4.63 µM; IC50 [23]: 190 nM

**Q.** Which results are given for `Cc1ccc(F)c(NC(=O)Nc2ccc(-c3cccc4c3c(N)nn4C(=O)C[C@H](N)C(=O)N[C@@H](CCC(=O)N[C@@H](CCC(=O)N[C@@H](CCC(=O)N[C@@H](CCC(=O)O)C(=O)O)C(=O)O)C(=O)O)C(=O)O)cc2)c1` [Compound 2]?
**A.** IC50 [1]: 11.3 µM; IC50 [2]: 7.13 µM; IC50 [3]: 32.1 µM; IC50 [4]: 0.82 µM; IC50 [5]: 4.38 µM; IC50 [6]: 10.3 µM; IC50 [7]: 5.62 µM; IC50 [8]: 8.29 µM; IC50 [9]: 4.94 µM; IC50 [10]: 15.8 µM; IC50 [11]: 6.71 µM; IC50 [12]: 8.39 µM; IC50 [13]: 6.37 µM; IC50 [14]: 14.4 µM; IC50 [15]: 5.21 µM; IC50 [16]: 15.8 µM; IC50 [17]: 6.37 µM; IC50 [18]: 3.75 µM; IC50 [19]: 4.67 µM; IC50 [20]: 2.69 µM; IC50 [21]: 63 nM; IC50 [22]: 2.94 µM; IC50 [23]: 120 nM

**Q.** With `Cc1ccc(F)c(NC(=O)Nc2ccc(-c3cccc4c3c(N)nn4C(=O)CCCCCCCCCCCNC(=O)C[C@H](N)C(=O)O)cc2)c1` [Compound 12] as the compound, how does the IC50 [1] read?
**A.** > 30 µM

**Q.** And the IC50 [2]?
**A.** > 30 µM

**Q.** And the IC50 [3]?
**A.** 19.5 µM

**Q.** And the IC50 [4]?
**A.** 10.6 µM

**Q.** What about the IC50 [5] of the same compound?
**A.** > 30 µM

**Q.** What about the IC50 [6] of the same compound?
**A.** > 30 µM

**Q.** And the IC50 [7]?
**A.** > 30 µM

**Q.** And the IC50 [8]?
**A.** > 30 µM

**Q.** And the IC50 [9]?
**A.** > 30 µM

**Q.** What about the IC50 [10] of the same compound?
**A.** > 30 µM

**Q.** And the IC50 [11]?
**A.** > 30 µM

**Q.** What about the IC50 [12] of the same compound?
**A.** > 30 µM

**Q.** What about the IC50 [13] of the same compound?
**A.** > 30 µM

**Q.** What about the IC50 [14] of the same compound?
**A.** 10.9 µM

**Q.** What about the IC50 [15] of the same compound?
**A.** > 30 µM

**Q.** What about the IC50 [16] of the same compound?
**A.** > 30 µM

**Q.** What about the IC50 [17] of the same compound?
**A.** > 30 µM

**Q.** What about the IC50 [18] of the same compound?
**A.** > 30 µM

**Q.** And the IC50 [19]?
**A.** > 30 µM

**Q.** And the IC50 [20]?
**A.** > 30 µM

**Q.** What about the IC50 [21] of the same compound?
**A.** 50 nM

**Q.** And the IC50 [22]?
**A.** > 30 µM

**Q.** And the IC50 [23]?
**A.** 50 nM

**Q.** Which results are given for `Cc1ccc(F)c(NC(=O)Nc2ccc(-c3cccc4c3c(N)nn4C(=O)CCCCCCCCCCCNC(=O)C[C@H](N)C(=O)N[C@@H](CCC(=O)N[C@@H](CCC(=O)N[C@@H](CCC(=O)N[C@@H](CCC(=O)N[C@@H](CCC(=O)N[C@@H](CCC(=O)N[C@@H](CCC(=O)N[C@@H](CCC(=O)N[C@@H](CCC(=O)O)C(=O)O)C(=O)O)C(=O)O)C(=O)O)C(=O)O)C(=O)O)C(=O)O)C(=O)O)C(=O)O)cc2)c1` [Compound 9]?
**A.** IC50 [1]: > 100 µM; IC50 [2]: > 100 µM; IC50 [3]: > 100 µM; IC50 [4]: 50.3 µM; IC50 [5]: 65.3 µM; IC50 [6]: 38.3 µM; IC50 [7]: 73.5 µM; IC50 [8]: > 100 µM; IC50 [9]: 63.4 µM; IC50 [10]: > 100 µM; IC50 [11]: 52.4 µM; IC50 [12]: 90 µM; IC50 [13]: 82.7 µM; IC50 [14]: > 100 µM; IC50 [15]: > 100 µM; IC50 [16]: > 100 µM; IC50 [17]: 77.8 µM; IC50 [18]: > 100 µM; IC50 [19]: 66.7 µM; IC50 [20]: 53.3 µM; IC50 [21]: 330 nM; IC50 [22]: 21.8 µM; IC50 [23]: 230 nM

Source: patent publication US11351151B2, “Compound having anticancer activity and preparation method and application” (3D Medicines (Beijing) Co., Ltd., priority 2016, dated 2022)
